Data on nine molecules can be found in patent US20240366807A1, “RADIOFLUORINATED AGENTS FOR PET IMAGING SELECTIVELY TARGETING FIBROBLAST ACTIVATION PROTEIN” (Trustees of tufts college, priority 2021, published 2024).

Molecules are shown by their SMILES. Where two headings read alike, the source gives them in different places.

The target of one test is recombinant human PREP (Homo sapiens (Human), UniProt P48147). The test can be described thus: In vitro enzyme IC50 assay, PREP. The conditions noted are these: read-out: PREP Inhibition (IC50). Format: biochemical. The text has this:
(§1) The peptide libraries XPYSWS-NH2, Ac-XPYSWS-NH2, GXYSWS-NH2, and Ac-GXYSWS-NH2, where X represents all natural amino acids except cysteine were synthesized by the Tufts University Core Facility. The DPPIV enzyme used for the specificity studies was previously purified by our laboratory at Tufts University from human placenta, and the purified human FAP enzyme used for these studies was kindly provided by Syrxx, Inc. For the in vitro IC50 determination assays, recombinant human DPPIV, DPP9, FAP, and PREP were purchased from R&D Systems, and DPP8 was from Biomol International. Buffer systems used were A (25 mM Tris, pH 8.0), B (50 mM Tris, pH 7.5), C (50 mM Tris, 140 mM NaCl, pH 7.5), D (25 mM Tris, 250 mM NaCl, pH 7.5), and E (20 mM Tris, 20 mM KCl, pH 7.4).
(§2) In Vitro Enzyme IC50 Assays
(§3) Enzymatic activity of DPPIV, DPP8, DPP9, FAP, and PREP was measured at 25° C. on a Molecular Devices M2^e multidetection microtiter plate reader, monitoring the fluorescence at an excitation wavelength of 380 nm and an emission wavelength of 460 nm. The substrate was either H-Gly-Pro-AMC for the DPPIV, DPP8, and DPP9 assays or Z-Gly-Pro-AMC for the FAP and PREP assays.
(§4) A (DPPIV and DPP9), buffer B (DPP8), buffer C (FAP), or buffer D (PREP) and a suitable amount of inhibitor (ranging between 10^−4 and 10^−11M) in a total volume of 210 μL. The final enzyme concentrations were 0.1, 0.8, 0.4, 1.2, and 0.6 nM for DPPIV, DPP8, DPP9,
(§5) FAP, and PREP, respectively. […] Those prepared in pH 2.0 solution were preincubated at 25° C. for 4 h prior to dilution. Immediately prior to the commencement of the experiment, the 100 mM stocks were further diluted to 10^−3M in the appropriate assay buffer, from which 1:10 serial dilutions were prepared. All inhibitors were tested in triplicate.

For the next test, the target named is recombinant human FAP (Homo sapiens (Human), UniProt Q12884). The test can be described thus: In vitro enzyme IC50 assay, FAP. It is filed as biochemical. The conditions noted are these: for IC50: read-out: FAP Inhibition (IC50).
Sequence of recombinant human FAP (Q12884 whole entry): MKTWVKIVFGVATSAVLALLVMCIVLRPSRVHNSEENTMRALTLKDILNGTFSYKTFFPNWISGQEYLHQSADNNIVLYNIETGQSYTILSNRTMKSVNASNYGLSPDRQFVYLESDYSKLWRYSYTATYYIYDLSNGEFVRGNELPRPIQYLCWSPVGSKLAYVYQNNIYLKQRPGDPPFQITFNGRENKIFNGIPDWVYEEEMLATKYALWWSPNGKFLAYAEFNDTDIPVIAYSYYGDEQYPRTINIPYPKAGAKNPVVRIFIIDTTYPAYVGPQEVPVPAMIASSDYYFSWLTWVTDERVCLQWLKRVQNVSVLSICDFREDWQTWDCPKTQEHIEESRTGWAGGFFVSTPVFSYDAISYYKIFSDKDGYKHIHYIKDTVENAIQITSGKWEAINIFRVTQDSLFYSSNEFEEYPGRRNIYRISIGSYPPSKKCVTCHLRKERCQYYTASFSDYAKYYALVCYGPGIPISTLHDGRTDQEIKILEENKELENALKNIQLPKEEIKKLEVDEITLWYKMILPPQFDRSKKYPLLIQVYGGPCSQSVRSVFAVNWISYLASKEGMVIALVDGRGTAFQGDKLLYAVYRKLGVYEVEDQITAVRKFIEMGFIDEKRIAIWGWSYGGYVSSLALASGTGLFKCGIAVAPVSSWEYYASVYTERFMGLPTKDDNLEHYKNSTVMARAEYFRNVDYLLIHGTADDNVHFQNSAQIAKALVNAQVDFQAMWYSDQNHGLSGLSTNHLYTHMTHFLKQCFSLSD
From the text: as §1, §2, §3, §4, §5

Sequence of recombinant human PREP (P48147 whole entry): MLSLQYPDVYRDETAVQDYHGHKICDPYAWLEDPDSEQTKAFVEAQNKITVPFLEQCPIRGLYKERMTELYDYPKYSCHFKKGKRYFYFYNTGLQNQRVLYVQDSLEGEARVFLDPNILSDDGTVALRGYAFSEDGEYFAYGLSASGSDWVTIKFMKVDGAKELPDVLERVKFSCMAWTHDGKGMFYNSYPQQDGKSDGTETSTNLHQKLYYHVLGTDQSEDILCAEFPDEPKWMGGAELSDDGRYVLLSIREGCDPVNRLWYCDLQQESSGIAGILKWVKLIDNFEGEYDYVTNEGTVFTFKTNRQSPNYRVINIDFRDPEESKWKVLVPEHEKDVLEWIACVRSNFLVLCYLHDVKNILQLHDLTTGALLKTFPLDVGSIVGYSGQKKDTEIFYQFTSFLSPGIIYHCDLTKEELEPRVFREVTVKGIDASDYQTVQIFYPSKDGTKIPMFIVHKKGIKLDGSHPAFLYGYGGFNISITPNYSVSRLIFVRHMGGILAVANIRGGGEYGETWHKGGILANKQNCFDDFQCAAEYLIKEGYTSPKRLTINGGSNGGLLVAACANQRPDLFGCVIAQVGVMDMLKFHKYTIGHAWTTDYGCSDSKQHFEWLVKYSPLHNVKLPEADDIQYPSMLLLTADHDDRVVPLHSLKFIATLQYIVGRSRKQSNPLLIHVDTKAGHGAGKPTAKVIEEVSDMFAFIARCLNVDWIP

Consider `C[C@@H](NC(=O)c1ccc(F)cc1)C(=O)N1CCC[C@H]1B(O)O`, for which the IC50 was determined as 4100 nM on recombinant human PREP (pH2.0), 5700 nM at recombinant human PREP (pH7.5), 220 nM on recombinant human FAP (pH2.0) and 260 nM on recombinant human FAP (pH7.5). Moreover, the “FAP Selectivity, IC50(PREP)/IC50(FAP)” value stood at 19 at recombinant human FAP (pH2.0) and 22 at recombinant human FAP (pH7.5).

In the case of `C[C@@H](NC(=O)c1ccccc1F)C(=O)N1CCC[C@H]1B(O)O`, the IC50 at recombinant human PREP (pH2.0) amounted to 2200 nM; at recombinant human PREP (pH7.5), 3100 nM; at recombinant human FAP (pH2.0) it was 390 nM; on recombinant human FAP (pH7.5), 650 nM. Besides, the figures for the “FAP Selectivity, IC50(PREP)/IC50(FAP)” value at recombinant human FAP (pH2.0) and at recombinant human FAP (pH7.5) were 5.6 and 4.8, respectively.

`C[C@@H](NC(=O)c1ccc(F)cc1F)C(=O)N1CCC[C@H]1B(O)O`: the IC50 on recombinant human PREP (pH2.0) amounted to 790 nM; at recombinant human PREP (pH7.5), 1400 nM; at recombinant human FAP (pH2.0), 690 nM; on recombinant human FAP (pH7.5) it was 390 nM. Moreover, the entries for the “FAP Selectivity, IC50(PREP)/IC50(FAP)” value at recombinant human FAP (pH2.0) and on recombinant human FAP (pH7.5) were 1.1 and 3.6, respectively.

In the case of `C[C@@H](NC(=O)c1c(F)c(F)c(F)c(F)c1F)C(=O)N1CCC[C@H]1B(O)O`, the IC50 turned out to be 1200 nM at recombinant human PREP (pH2.0), 1500 nM on recombinant human PREP (pH7.5), 450 nM on recombinant human FAP (pH2.0) and 330 nM at recombinant human FAP (pH7.5). Moreover, the “FAP Selectivity, IC50(PREP)/IC50(FAP)” value was 2.7 on recombinant human FAP (pH2.0) and 4.5 on recombinant human FAP (pH7.5).

For `C[C@@H](NC(=O)c1ccc(OCF)cc1)C(=O)N1CCC[C@H]1B(O)O`, the IC50 on recombinant human PREP (pH2.0) turned out to be 2000 nM; on recombinant human PREP (pH7.5), 1900 nM; on recombinant human FAP (pH2.0), 240 nM; on recombinant human FAP (pH7.5), 240 nM. The entries for the “FAP Selectivity, IC50(PREP)/IC50(FAP)” value on recombinant human FAP (pH2.0) and at recombinant human FAP (pH7.5) were 8.3 and 7.9, respectively.

Regarding `C[C@@H](NC(=O)c1cccc(OCF)c1)C(=O)N1CCC[C@H]1B(O)O`, the IC50 came out at 48 nM on recombinant human PREP (pH2.0), 53 nM at recombinant human PREP (pH7.5), 130 nM at recombinant human FAP (pH2.0) and 130 nM on recombinant human FAP (pH7.5). Moreover, the “FAP Selectivity, IC50(PREP)/IC50(FAP)” value was 0.37 at recombinant human FAP (pH2.0) and 0.41 at recombinant human FAP (pH7.5).

Take `C[C@@H](NC(=O)c1cc(F)ncc1F)C(=O)N1CCC[C@H]1B(O)O`: the IC50 came out at 2000 nM on recombinant human PREP (pH2.0), 2300 nM at recombinant human PREP (pH7.5), 140 nM at recombinant human FAP (pH2.0) and 140 nM at recombinant human FAP (pH7.5). In addition, the “FAP Selectivity, IC50(PREP)/IC50(FAP)” value came out at 14 on recombinant human FAP (pH2.0) and 16 at recombinant human FAP (pH7.5).

As for `C[C@@H](NC(=O)c1cc(F)nc(F)c1)C(=O)N1CCC[C@H]1B(O)O`, the IC50 came to 2300 nM at recombinant human PREP (pH2.0), 2500 nM on recombinant human PREP (pH7.5), 100 nM on recombinant human FAP (pH2.0) and 130 nM at recombinant human FAP (pH7.5). Also, the “FAP Selectivity, IC50(PREP)/IC50(FAP)” value on recombinant human FAP (pH2.0) came to 23; at recombinant human FAP (pH7.5), 19.

For `C[C@@H](NC(=O)c1ccnc(F)c1F)C(=O)N1CCC[C@H]1B(O)O`, the IC50 on recombinant human PREP (pH2.0) was determined as 1900 nM; at recombinant human PREP (pH7.5), 2200 nM; at recombinant human FAP (pH2.0), 130 nM; at recombinant human FAP (pH7.5), 150 nM. Further, the “FAP Selectivity, IC50(PREP)/IC50(FAP)” value at recombinant human FAP (pH2.0) and at recombinant human FAP (pH7.5) was 15 each time.

The IC50 is the point on the concentration scale where inhibition reaches its midpoint.
